Measurements reported in ChEMBL document CHEMBL1629701, “Phase 2a randomized controlled trial of short-term activity, safety, and pharmacokinetics of a novel nonnucleoside reverse transcriptase inhibitor, RDEA806, in HIV-1-positive, antiretroviral-naive subjects” (Antimicrob Agents Chemother, 2010).
In brackets after ≈: the same amount, converted by molar mass. Activity calls are given as the source filed them. The calls are words filed in the database; no cut-off is given here.

Key:
[1] = Renal clearance in rhesus monkey; format: ADME, organism-based, Macaca mulatta, Kidney; settings: in vivo, read-out: CL_renal
[2] = Drug excretion in rat urine; format: ADME, tissue-based; settings: read-out: Activity
[3] = test system: Human immunodeficiency virus 1; experiment: Antiviral activity against HIV1 infected in human assessed as change in CD8 expressing T-cell count from baseline at 600 mg, po BID for 7 days as four modified-release capsules followed by a single dose on day 8 measured on day 9 relative to pooled placebo control; format: functional
[4] = test system: Human immunodeficiency virus 1; experiment: Antiviral activity against HIV1 infected in fasted human assessed as viral load decay rate as viral log10 RNA copies/ml/day at 600 mg, po BID for 7 days as four modified-release capsules followed by a single dose on day 8 measured per day for 9 days; format: functional
[5] = test system: Human immunodeficiency virus 1; experiment: Antiviral activity against HIV1 infected in human assessed as change in CD4 expressing T-cell count from baseline at 1000 mg, po administered every day as five enteric-coated tablets followed by a single dose on day 8 measured on day 9 relative to pooled placebo control; format: functional
[6] = test system: Human immunodeficiency virus 1; experiment: Antiviral activity against HIV1 infected in human assessed as log reduction in HIV-1 RNA level at 800 mg, po administered every day; format: functional
[7] = Drug excretion in dog urine; format: ADME, Canis lupus familiaris; settings: read-out: Activity
[8] = Plasma protein binding in dog; format: ADME, cell-free, Canis lupus familiaris; settings: read-out: PPB
[9] = Cmax in fasted human plasma at 400 mg, po every 12 hrs measured on day 8; format: ADME, organism-based; parameters: dose 400 mg, route oral
[10] = test system: Human immunodeficiency virus 1; experiment: Antiviral activity against HIV1 infected in fasted human assessed as viral load decay rate as viral log10 RNA copies/ml/day at 400 mg, po BID for 7 days as four modified-release capsules followed by a single dose on day 8 measured on day 9; format: functional
[11] = Cmax in human plasma at 500 mg administered as multiple doses, BID; format: ADME, organism-based; parameters: dose 500 mg
Homo sapiens [12] = experiment: Reduction in uric acid level in healthy human serum at 600 mg, po administered every day; format: functional
[13] = Drug concentration at steady state in fasted human plasma 600 mg, po every 24 hrs measured on day 8; format: ADME, organism-based; settings: read-out: Drug uptake
[14] = Cmax in fasted human at 800 mg, po every 24 hrs measured on day 8; format: ADME, organism-based; parameters: dose 800 mg, route oral; settings: in vivo
Homo sapiens [15] = species on record: Homo sapiens; experiment: Reduction in uric acid level in human plasma; format: functional, organism-based
[16] = AUC (0 to 12 hrs) in human plasma at 300 mg administered as multiple doses, BID; format: ADME, organism-based; parameters: time < 12 hr, dose 300 mg
[17] = test system: Human immunodeficiency virus 1; experiment: Antiviral activity against HIV1 infected in fasted human assessed as decrease in log10 HIV RNA copies/ml at 600 mg, po […] followed by a single dose on day 8 measured on day 9 relative to pooled placebo control; format: functional
[18] = test system: Human immunodeficiency virus 1; experiment: Antiviral activity against HIV1 infected in fasted human assessed as decrease in plasma viral log10 RNA copies/ml at 400 mg, po BID for 7 days as four modified-release capsules followed by a single dose on day 8 measured on day 9 relative to pooled placebo control; format: functional
[19] = test system: Human immunodeficiency virus 1; experiment: Antiviral activity against HIV1 infected in human assessed as change in CD8 expressing T-cell count from baseline at 800 mg, po administered every day as four enteric-coated tablets followed by a single dose on day 8 measured on day 9 relative to pooled placebo control; format: functional
[20] = Renal clearance in rat; format: ADME, organism-based, Kidney; settings: in vivo, read-out: CL_renal
[21] = test system: Human immunodeficiency virus 1; experiment: Antiviral activity against HIV1 infected in fasted human assessed as decrease in plasma viral log10 RNA copies/ml at 1000 mg, po […] followed by a single dose on day 8 measured on day 9 relative to pooled placebo control; format: functional
Homo sapiens [22] = experiment: Reduction in uric acid level in healthy human serum at 1000 mg, po administered every day; format: ADME, organism-based; settings: in vivo
[23] = AUC (0 to 12 hrs) in human plasma at 500 mg administered as multiple doses, BID; format: ADME, organism-based; parameters: dose 500 mg, time < 12 hr
[24] = test system: Human immunodeficiency virus 1; experiment: Antiviral activity against HIV1 infected in fasted human assessed as decrease in plasma viral log10 RNA copies/ml at 600 mg, po […] followed by a single dose on day 8 measured on day 9 relative to pooled placebo control; format: functional
Homo sapiens [25] = experiment: Reduction in uric acid level in healthy human serum at 400 mg, po BID; format: functional
[26] = test system: Human immunodeficiency virus 1; experiment: Antiviral activity against HIV1 infected in fasted human assessed as decrease in plasma viral log10 RNA copies/ml at 800 mg, po […] followed by a single dose on day 8 measured on day 9 relative to pooled placebo control; format: functional
[27] = Half life in fasted human at 400 mg, po every 24 hrs measured on day 8; format: ADME, organism-based; settings: in vivo
[28] = test system: Human immunodeficiency virus 1; experiment: Antiviral activity against HIV1 infected in fasted human assessed as decrease in log10 HIV RNA copies/ml at 400 mg, po BID for 7 days as four modified-release capsules followed by a single dose on day 8 measured on day 9 relative to pooled placebo control; format: functional
[29] = Plasma protein binding in rhesus monkey; format: ADME, cell-free, Macaca mulatta; settings: read-out: PPB
Homo sapiens [30] = species on record: Homo sapiens; experiment: Toxicity in healthy human assessed as occurrence of adverse events; format: organism-based; settings: in vivo
[31] = AUC (24 hrs) in fasted human at 1000 mg, po every 24 hrs measured on day 8; format: ADME, organism-based; parameters: dose 1000 mg, time < 24 hr, route oral; settings: plasma
[32] = Renal clearance in human; format: ADME, organism-based, Kidney; settings: in vivo, read-out: CL_renal
[33] = test system: Human immunodeficiency virus 1; experiment: Antiviral activity against HIV1; format: functional, organism-based

For `O=C(CSc1nnc(Br)n1-c1ccc(C2CC2)c2ccccc12)Nc1ccc(C(=O)O)cc1Cl`, the CL renal [1] was ≤ 1 mL/min, the dose excreted [2] was < 0.06% and the Activity [3] was 64.54 /mm3. The Activity [4] was -0.18 mL⁻¹, the Activity [5] was 90.48 /mm3 and the Activity [6] was 0.5 mL⁻¹. The dose excreted [7] was < 0.06%, the fraction unbound [8] was < 0.01 and the Cmax [9] was 2990 ng/mL. It also gave an Activity [10] of -0.25 mL⁻¹, a Cmax [11] of 746 ng/mL and an Activity (Homo sapiens [12]) of 81 µmol/L. For the same molecule, the concentration at 24 h [13] was 276 ng/mL, the Cmax [14] was 1910 ng/mL and the Activity (Homo sapiens [15]) was “Active”. The AUC at 12 h [16] was 3160 ng·h/mL, the Activity [17] was -1.394 mL⁻¹ and the Activity [18] was -2.0608 mL⁻¹. For the same molecule, the Activity [19] was 79.41 /mm3, the CL renal [20] was ≤ 1 mL/min and the Activity [21] was -1.8189 mL⁻¹. For the same molecule, the Activity (Homo sapiens [22]) was 88 µmol/L, the AUC at 12 h [23] was 3770 ng·h/mL and the Activity [24] was -1.5241 mL⁻¹. The Activity (Homo sapiens [25]) was 88 µmol/L, the Activity [26] was -1.7426 mL⁻¹ and the half-life [27] was 678 min. The Activity [28] was -1.948 mL⁻¹, the fraction unbound [29] was < 0.01 and the Activity (Homo sapiens [30]) was “Non-toxic”. The AUC at 24 h [31] was 17400 ng·h/mL, the CL renal [32] was ≤ 1 mL/min and the EC50 [33] was 1.7 ng/mL (≈ 3.05 nM).
